“Also recorded” adds a separate entry of the source.
How the values were obtained:
[1] = tested on: LH, FSH concentrations; conditions: patients of Alzheimer's disease, clinical test; cited from earlier work
[2] = tested on: blood LH; assay: Suppression of blood LH in castrated monkeys; assay type: in vivo, cynomolgus monkeys (Macaca fascicularis); conditions: castrated male cynomolgus monkeys
Text: Suppression of blood LH in castrated monkeys
5-(N-Benzyl-N-methylaminomethyl)-1-(2,6-difluorobenzyl)-6-[4-(3-methoxyureido)phenyl]-3-phenythieno[2,3-d]pyrimidine-2,4(1H,3H)-dione hydrochloride was orally administered to castrated male cynomolgus monkeys (Macaca fascicularis), and blood LH was quantified. The male cynomolgus monkeys, used at 4 years 9 months to 6 years 3 months of age at time of experimentation, had been castrated more than 3 months prior to the examination. Test animals [n=3] were given 30 mg/kg (3 ml/kg) of 5-(N-benzyl-N-methylaminomethyl)-1-(2,6-difluorobenzyl)-6-[4-(3-methoxyureido)phenyl]-3-phenylthieno[2,3-d]pyrimidine-2,4(1H,3H)-dione hydrochloride suspended in 0.5% methylcellulose at a final concentration of 1% by oral administration, and control test animals [n=2] were given 3 ml/kg of the 0.5% methylcellulose dispersant alone by oral administration. At 24 hours and immediately before administration and at 2, 4, 6, 8, 24, and 48 hours after administration, blood was collected for heparinized plasma samples via the femoral vein and immediately stored under freezing conditions.
Plasma LH concentrations were determined by a bioassay using mouse testicular cells. The testicular cells were collected from male BALB/c mice (8 to 9 weeks of age) and washed three times with 1 ml of Dulbecco's modified Eagle medium (DMEM-H) containing 20 mM HEPES and 0.2% BSA per testis. After incubation at 37° C. for 1 hour, the cells were passed through a nylon mesh (70 μm) and dispensed at 8×10^5 cells/tube. After the cells were washed twice with 0.4 ml of DMEM-H, 0.4 ml of a DMEM-H solution containing either equine LH (Sigma), as the standard LH, or monkey plasma, finally diluted up to 300 fold, as the test sample, was added, followed by a reaction at 37° C. for 2 hours. The testosterone concentration in the culture supernatant was determined by a radioimmunoassay (CIS Diagnostics), and the LH concentration in the test monkey plasma was calculated from the standard curve for the standard equine LH. […]

SMILES | LH, FSH concentrations [1] | progress of Alzheimer's disease [1] | blood LH concentration relative to the value immediately before administration ([2]; 30 mg/kg oral in 0.5% methylcellulose, in 24 hours after administration, n=3) [%] | blood LH concentration at 48 hours after administration ([2]; 30 mg/kg oral, 48 hours after administration) | effect on blood LH concentration (in words) ([2]; 30 mg/kg oral, hydrochloride, 30 mg/kg)
CCNC(=O)[C@@H]1CCCN1C(=O)[C@H](CCCNC(=N)N)NC(=O)[C@H](CC(C)C)NC(=O)[C@@H](CC(C)C)NC(=O)[C@H](Cc1ccc(O)cc1)NC(=O)[C@H](CO)NC(=O)[C@H](Cc1c[nH]c2ccccc12)NC(=O)[C@H](Cc1c[nH]cn1)NC(=O)[C@@H]1CCC(=O)N1 [Leuplin] | lowers the LH, FSH concentrations | inhibits the progress of Alzheimer's disease |  |  | 
CONC(=O)Nc1ccc(-c2sc3c(c2CN(C)Cc2ccccc2)c(=O)n(-c2ccccc2)c(=O)n3Cc2c(F)cccc2F)cc1.Cl [5-(N-benzyl-N-methylaminomethyl)-1-(2,6-difluorobenzyl)-6-[4-(3-methoxyureido)phenyl]-3-phenylthieno[2,3-d]pyrimidine-2,4(1H,3H)-dione hydrochloride] |  |  | ≤ 20 | re-elevation of the blood LH concentration was noted | rapid fall beginning immediately after administration; also recorded: significant decreasing effect on blood LH concentration

— patent publication US20030134863A1, “Preventives/remedies for alzheimer's disease” (priority 2000, published 2003)
